In the assay the target is T1, recombinant human LTA4 hydrolase (rhLTA4H) (Homo sapiens, UniProt P09960).
T1 sequence (P09960 1-611): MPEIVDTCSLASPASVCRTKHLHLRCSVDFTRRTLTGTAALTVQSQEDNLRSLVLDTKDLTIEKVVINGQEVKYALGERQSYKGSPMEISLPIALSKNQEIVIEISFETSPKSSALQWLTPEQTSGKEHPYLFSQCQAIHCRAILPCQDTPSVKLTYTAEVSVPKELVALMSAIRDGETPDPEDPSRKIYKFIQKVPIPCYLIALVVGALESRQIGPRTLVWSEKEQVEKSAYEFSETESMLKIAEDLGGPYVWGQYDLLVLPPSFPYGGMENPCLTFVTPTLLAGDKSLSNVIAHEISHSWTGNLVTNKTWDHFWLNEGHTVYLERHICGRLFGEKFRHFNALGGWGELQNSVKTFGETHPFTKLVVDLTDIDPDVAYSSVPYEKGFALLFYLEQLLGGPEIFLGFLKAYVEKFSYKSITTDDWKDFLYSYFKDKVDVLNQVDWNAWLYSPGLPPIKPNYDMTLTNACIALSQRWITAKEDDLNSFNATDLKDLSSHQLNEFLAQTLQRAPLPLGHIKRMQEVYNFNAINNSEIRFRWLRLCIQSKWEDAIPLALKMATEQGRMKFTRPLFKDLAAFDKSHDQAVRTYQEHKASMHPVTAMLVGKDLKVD
The assay can be described thus: Recombinant human LTA4 hydrolase assay for LTA4 hydrolase inhibitor activity. Particulars: for IC50: Recombinant Human LTA4 Hydrolase Assay IC50 LTA4H, recombinant hLTA4H; for inhibition at 3 µM: read-out: Recombinant Human LTA4 Hydrolase Assay, % at 3 μM; for inhibition at 100 µM: read-out: Recombinant Human LTA4 Hydrolase Assay, % at 100 μM.

We go through 75 compounds from patent publication US6506876B1, “LTA4 hydrolase inhibitor pharmaceutical compositions and methods of use” (G.D. Searle & Co., priority 1994, dated 2003).

Molecules are shown by their SMILES. Values joined by “and” are separate entries in the source; they are usually repeats but may differ in a detail not shown here. Identical values can stand only once. Counter-ions that a name gives are not always drawn.

As for `CCOC(=O)[C@@H]1CCN(CCOc2ccc(Cc3ccccc3)cc2)[C@H](C)C1` (relative stereo) [Example 298], the IC50 (in general, the concentration that gives 50% inhibition) came to 2500 nM.

`c1ccc(Cc2ccc(OCCn3ccc4ncnc-4c3)cc2)cc1` [340 A]: the IC50 was 11 nM.

With `c1ccc(Cc2ccc(OCCCn3cnc4cccnc43)cc2)cc1` [341 A], the IC50 came to 5700 nM. For the compound `c1ccc(COc2ccc(OCCn3cnc4cccnc43)cc2)cc1` [346 A], the inhibition at 3 µM was 31%.

Consider `c1ccc(COc2ccc(OCCn3cccc4ncnc3-4)cc2)cc1` [346 C], for which the half-maximal inhibitory concentration (IC50) was determined as 2200 nM. On the same count and under the same terms, with `c1ccc(Oc2ccc(OCCCn3cnc4cccnc43)cc2)cc1` [350 A] the figure was 19000 nM; with `c1ccc(Oc2ccc(OCCCn3cnc4ccncc43)cc2)cc1` [351 A], 1080 nM. For `Fc1ccc(Oc2ccc(OCCn3cnc4cccnc43)cc2)cc1` [354 A], the inhibition at 3 µM turned out to be 51%.

On to `c1ccc(Cc2ccc(OCCn3cnc4cncnc43)cc2)cc1` [357 B], for which the concentration for half-maximal inhibition (IC50) was 730 nM.

For `c1ccc(Cc2ccc(OCCn3cncc4ncnc3-4)cc2)cc1` [357 D], the half-inhibitory concentration (IC50) was 40 nM. Same read-out and setting: for `c1ccc(Cc2ccc3c(c2)CC(Cn2cnc4cccnc42)O3)cc1` (stereo not drawn) [359 A] the value was 100000 nM; for `c1ccc(Cc2ccc3c(c2)CC(Cn2cnc4ncccc42)O3)cc1` (stereo not drawn) [359 B], 10000 nM; for `c1ccc(Cc2ccc3c(c2)CC(Cn2cccc4ncnc2-4)O3)cc1` (stereo not drawn) [359 C], 3500 nM.

Regarding `c1ccc(Cc2ccc3c(c2)CC(Cn2nnc4cccnc42)O3)cc1` (stereo not drawn) [360 A], the inhibition at 100 µM came out at 36%. The same measure, in the same setting: with `c1ccc(Cc2ccc3c(c2)CC(Cn2nc4cccnc4n2)O3)cc1` (stereo not drawn) [360 B] the figure was 19%.

As to `c1ccc(Cc2ccc3c(c2)CC(Cn2nnc4ncccc42)O3)cc1` (stereo not drawn) [360 C], the IC50 is 5000 nM. Consider `c1ccc(Cc2ccc3c(c2)CC(Cn2nc4ccncc4n2)O3)cc1` (stereo not drawn) [361 A], for which the inhibition at 100 µM was found to be 24%.

Consider `c1ccc(Cc2ccc3c(c2)CC(Cn2nnc4cnccc42)O3)cc1` (stereo not drawn) [361 B], for which the IC50 came out at 7000 nM.

Consider `O=C(O)c1ccc(-c2ccc(OCCN3CCCC3)cc2)cc1` [Example 63, 4-[4-[2-(1-pyrrolidinyl)ethoxy]phenyl]benzoic acid], for which the “Recombinant Human LTA4 Hydrolase Assay, % at 25 μM” value was 40% at 25. For the compound `O=C(O)c1ccc(Oc2ccc(OCCN3CCCC3)cc2)cc1` [Example 64, 4-[4-[2-(1-pyrrolidinyl)ethoxy]phenoxy]benzoic acid], the “Recombinant Human LTA4 Hydrolase Assay, % at 25 μM” value is reported as 52% at 25.

As for `c1ccc(Oc2ccc(OCCN3CCCC3)nc2)cc1` [Example 65, 5-phenoxy-2-[2-(1-pyrrolidinyl)ethoxy]pyridine], the IC50 is 110 nM. The same measure, in the same setting: for `c1ccc(Oc2ccc(NCCN3CCCC3)cc2)cc1` [Example 71, N-(4-phenoxyphenyl)-1-pyrrolidine ethanamine, monohydrochloride] the value was 6500 nM. Still for that read-out and setting: with `Clc1cc(OCCN2CCCC2)ccc1Cc1ccccc1` [Example 114] the figure was 3000 nM. Still for that read-out and setting: for `Cc1cc(Cc2ccccc2)ccc1OCCN1CCCC1` [Example 117] the value was 3900 nM; for `Cc1cc(OCCN2CCCC2)ccc1Cc1ccccc1` [Example 118], 9000 nM; for `Fc1cc(Cc2ccccc2)cc(F)c1OCCN1CCCC1` [Example 119], 4000 nM.

For the compound `Fc1cc(OCCN2CCCC2)c(F)cc1Cc1ccccc1` [Example 120], the IC50 turned out to be 8000 nM. Turning to `COC(=O)c1cc(Cc2ccccc2)ccc1OCCN1CCCC1` [Example 123], the IC50 was 7000 nM.

For `COc1cc(Cc2ccccc2)ccc1OCCN1CCCC1` [Example 124], the concentration for half-maximal inhibition (IC50) was 25000 nM. Regarding `COc1ccccc1Cc1ccc(OCCN2CCCC2)cc1` [Example 129], the IC50 worked out at 16000 nM.

As to `c1cc(OCCN2CCCC2)ccc1Cc1ccc2c(c1)OCO2` [Example 130], the IC50 worked out at 170 nM.

`c1ccc2nc(Cc3ccc(OCCN4CCCC4)cc3)ccc2c1` [Example 131]: the IC50 turned out to be 4300 nM. Regarding `Fc1ccccc1Cc1ccc(OCCN2CCCC2)cc1` [Example 141], the IC50 came out at 13 nM. `Clc1cccc(Cc2ccc(OCCN3CCCC3)cc2)c1` [Example 143]: the 50% inhibitory concentration (IC50) came to 56 nM. Still for that read-out and setting: for `COc1ccc(Cc2ccc(OCCN3CCCC3)cc2)cc1F` [Example 144] the value was 80 nM; for `c1ccc2cc(COc3ccc(OCCN4CCCC4)cc3)ccc2c1` [Example 200], 350 nM. With `c1ccc2ncc(COc3ccc(OCCN4CCCC4)cc3)cc2c1` [Example 201], the concentration for half-maximal inhibition (IC50) worked out at 330 nM. Consider `Cc1nc(COc2ccc(OCCN3CCCC3)cc2)cs1` [Example 202], for which the inhibition at 3 µM came out at 44%. As to `Brc1ccc(COc2ccc(OCCN3CCCC3)cc2)cc1` [Example 203], the half-maximal inhibitory concentration (IC50) amounted to 380 nM. For `Clc1cccc(Cl)c1COc1ccc(OCCN2CCCC2)cc1` [Example 204], the “Recombinant Human LTA4 Hydrolase Assay, % at 25 μM” value is 49% at 25.

On to `Fc1ccc(COc2ccc(OCCN3CCCC3)cc2)cc1` [Example 205], for which the IC50 came to 900 nM. On the same count and under the same terms, with `Clc1cccc(COc2ccc(OCCN3CCCC3)cc2)c1` [Example 206] the figure was 200 nM; with `Fc1ccccc1COc1ccc(OCCN2CCCC2)cc1` [Example 207], 220 nM. Consider `Cc1ccccc1COc1ccc(OCCN2CCCC2)cc1` [Example 210], for which the “Recombinant Human LTA4 Hydrolase Assay, % at 25 μM” value was 4% at 25 μM. Consider `Cc1ccc(COc2ccc(OCCN3CCCC3)cc2)cc1` [Example 212], for which the 50% inhibitory concentration (IC50) worked out at 3000 nM. On to `COc1ccc(COc2ccc(OCCN3CCCC3)cc2)cc1` [Example 213], for which the IC50 came out at 1300 nM. Same read-out and setting: with `c1ccc2c(COc3ccc(OCCN4CCCC4)cc3)cccc2c1` [Example 214] the figure was 2800 nM. Regarding `NC(=O)C1CCN(CCCOc2ccc(Cc3ccccc3)cc2)CC1` [Example 226], the inhibition at 100 µM amounted to 4%.

For `O=C(OCc1ccccc1)[C@@H]1CCCN1CCCOc1ccc(Cc2ccccc2)cc1` [Example 228], the inhibition at 3 µM amounted to 28%.

On to `NC(=O)C1CCN(CCOc2ccc(Cc3nccs3)cc2)CC1` [Example 231], for which the 50% inhibitory concentration (IC50) was 5000 nM. Still for that read-out and setting: for `COc1ccc(Cc2ccc(OCCN3CCC(C(N)=O)CC3)cc2)cc1` [Example 232] the value was 2100 nM; for `NC(=O)C1CCN(CCOc2ccc(Cc3ccc(Cl)cc3)cc2)CC1` [Example 234], 8000 nM.

On to `NC(=O)C1CCN(CCOc2ccc(Cc3ccc(F)cc3)cc2)CC1` [Example 235], for which the IC50 is 10000 nM. The same measure, in the same setting: for `NC(=O)C1CCN(CCOc2ccc(Cc3cccnc3)cc2)CC1` [Example 236] the value was 20000 nM; for `NC(=O)C1CCCN(CCOc2ccc(Cc3ccccc3)cc2)C1` (stereo not drawn) [Example 243], 70 nM. Turning to `NC(=O)C1CCCN(CCCOc2ccc(Cc3ccccc3)cc2)C1` (stereo not drawn) [Example 244], the inhibition at 100 µM is 15%.

In the case of `c1ccc(Cc2ccc(OCCN3CCC4(CC3)OCCO4)cc2)cc1` [Example 246], the concentration for half-maximal inhibition (IC50) is 7000 nM. Same read-out and setting: for `CCOC(=O)CCNC(=O)C1CCN(CCOc2ccc(Cc3ccccc3)cc2)CC1` [Example 249] the value was 3200 nM; for `CNC(=O)C1CCN(CCOc2ccc(Oc3ccccc3)cc2)CC1` [Example 255], 280 nM. Regarding `CC(C)(C)OC(=O)C1CCCN1CCCOc1ccc(Cc2ccccc2)cc1` (stereo not drawn) [Example 260], the inhibition at 3 µM was 14%. Consider `O=C(CCNCCCOc1ccc(Cc2ccccc2)cc1)OCc1ccccc1` [Example 261], for which the IC50 was 1250 nM.

With `CC(C)(C)OC(=O)CCNCCCOc1ccc(Cc2ccccc2)cc1` [Example 268], the inhibition at 3 µM is 53%. On to `CCOC(=O)C1CCCN(CCOc2ccc(Cc3ccccc3)cc2)C1` (stereo not drawn) [Example 270], for which the concentration for half-maximal inhibition (IC50) turned out to be 50000 nM.

`CCOC(=O)CCNCCCCCOc1ccc(Cc2ccccc2)cc1` [Example 274]: the IC50 amounted to 800 nM. As for `CC1(CN2CCC(C(N)=O)CC2)Cc2cc(Cc3ccccc3)ccc2O1` (stereo not drawn) [Example 286], the inhibition at 100 µM is 41%.

On to `c1ccc(Cc2cnc3c(c2)CC(CN2CCCC2)O3)cc1` (stereo not drawn) [Example 287], for which the IC50 is 330 nM.

On to `c1ccc(Oc2ccc3c(c2)CC(CN2CCCC2)O3)cc1` (stereo not drawn) [Example 289], for which the IC50 was found to be 43 nM. The same measure, in the same setting: for `c1ccc(Cc2ccc3c(c2)CCC(CN2CCCC2)O3)cc1` (stereo not drawn) [Example 292] the value was 7 nM; for `CCOC(=O)CC1CCN(CCCOc2ccc(Cc3ccccc3)cc2)CC1` [Example 302], 3000 nM. Same read-out and setting: with `COC(=O)CC1CC2CC1N(CCOc1ccc(Cc3ccccc3)cc1)C2` (stereo not drawn) [Example 307] the figure was 440 nM. With `CCOC(=O)C1CCN(CCOc2ccc(Cc3cccnc3)cc2)CC1` [Example 311], the inhibition at 100 µM was found to be 44%. With `CCOC(=O)C1CCN(CCOc2ccc(Cc3ccc(F)cc3)cc2)CC1` [Example 312], the inhibition at 100 µM came to 46%. As to `CCOC(=O)C1CCN(CCOc2ccc(Cc3ccsc3)cc2)CC1` [Example 313], the half-inhibitory concentration (IC50) stood at 25000 nM. Still for that read-out and setting: with `COc1ccc(Cc2ccc(OCCN3CCC(C(N)=O)CC3)cc2)cc1F` [Example 314] the figure was 1500 nM; with `COC(=O)CNCCCOc1ccc(Cc2ccccc2)cc1` [Example 318], 2500 nM and 4200 nM.
